Patent US20230416199A1, “INHIBITORS OF AMINO ACID TRANSPORT” (ICAHN SCHOOL OF MEDICINE AT MOUNT SINAI, priority 2020, published 2023)

How the values were obtained:
[1] = target: T1, EAAT1 (Homo sapiens, UniProt P43003); assay: Electrophysiology specificity experiment in transfected HEK293 cells, EAAT1; assay type: cell-based; conditions: apparent Ki, HEK293, internal solution 10 mM glutamate, mean ± SD
T1 construct: expressed in transfected cells; host or cells: HEK293 (ATCC CRL-11268), transient transfection
T1 sequence (P43003 whole entry, species assumed): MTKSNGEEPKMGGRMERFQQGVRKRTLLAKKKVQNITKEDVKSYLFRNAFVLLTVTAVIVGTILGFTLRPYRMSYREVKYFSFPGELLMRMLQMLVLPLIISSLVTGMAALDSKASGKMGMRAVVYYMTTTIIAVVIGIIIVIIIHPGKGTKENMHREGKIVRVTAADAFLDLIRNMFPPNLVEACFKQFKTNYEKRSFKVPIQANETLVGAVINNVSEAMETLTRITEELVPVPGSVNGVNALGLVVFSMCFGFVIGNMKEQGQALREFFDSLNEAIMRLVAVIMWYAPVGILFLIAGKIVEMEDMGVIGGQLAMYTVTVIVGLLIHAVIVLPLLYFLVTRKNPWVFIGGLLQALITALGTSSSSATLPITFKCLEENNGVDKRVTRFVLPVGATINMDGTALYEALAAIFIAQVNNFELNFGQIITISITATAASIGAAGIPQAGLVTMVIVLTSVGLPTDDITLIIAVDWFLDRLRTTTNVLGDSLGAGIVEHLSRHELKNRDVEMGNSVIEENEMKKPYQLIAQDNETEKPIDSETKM
Experimental: Human embryonic kidney 293 (HEK293, ATCC CRL-11268) cells were cultured in DMEM media supplemented with 10% (v v) fetal bovine serum (FBS), 2 mM glutamine, 1% penicillin streptomycin solution, 1 mM sodium pyruvate and non-essential amino acids. Cells were maintained at 37° C. in a fully humidified atmosphere containing 5% CO2. rASCT2, hASCT2, hASCT1, EAAT1, EAAT2, EAAC1, EAAT5 and YFP complementary DNAs were each used to transiently transfect HEK293 using POLYPLUS Jet-prime transfection reagent. Cells were analyzed using electrophysiological techniques 24-40 hours after transfection.
(§1) Stock solutions of inhibitor was prepared in dimethyl sulfoxide (DMSO) up to 100 mM. Dilutions to working concentrations were made using external buffer. […] For rASCT2, hASCT2 and hASCT1, external buffer contained 140 mM NaCl, 2 mM MgCl2, 2 mM CaCl2), and 10 mM HEPES, pH 7.40 while internal pipette solution comprised of 130 mM NaSCN, 2 mM MgCl2, 10 mM EGTA, 10 mM HEPES and 10 mM alanine, pH 7.40. For specificity experiments with EAAT1, EAAT2, EAAC1 and EAAT5, internal solution contained 10 mM glutamate instead of alanine. Compounds were applied to HEK293 cells expressing DNA of interest suspended from a current recording electrode in whole cell configuration through a rapid solution exchange device. Cells are immersed in external buffer bath used to dissolve the inhibitors. The open pipette resistance was between 3 and 6 MΩ. Series resistance was not compensated in these experiments due to relatively small currents. Currents traces were recorded using an Adams and List EPC7 amplifier and digitized using a Molecular Devices Digidata A/D converter.
(§2) Linear and nonlinear curve fitting of the experimental data were analyzed using MicroCal Origin software. Nonlinear dose-response relationships were fitted with a Michaelis-Menten-like equation to obtain apparent Ki values in the absence of substrate (see TABLE 2 for Ki values). The figures show representative current traces and dose-response curves for hACST2 and rASCT2, used to obtain Ki values in TABLE 2 for compound SN 40. At least four experiments were performed with at least three different cells. Error bars in all graphs, e.g., in FIG. 1B and FIG. 1C and tables (Ki values) represent mean±SD.

[2] = target: T2, EAAC1 (UniProt P51907); assay: Electrophysiology specificity experiment in transfected HEK293 cells, EAAC1; assay type: cell-based; conditions: apparent Ki, HEK293, internal solution 10 mM glutamate, mean ± SD
T2 construct: Ki EAAC1; other: apparent Ki, HEK293, internal solution 10 mM glutamate, mean ± SD
T2 sequence (P51907 1-523): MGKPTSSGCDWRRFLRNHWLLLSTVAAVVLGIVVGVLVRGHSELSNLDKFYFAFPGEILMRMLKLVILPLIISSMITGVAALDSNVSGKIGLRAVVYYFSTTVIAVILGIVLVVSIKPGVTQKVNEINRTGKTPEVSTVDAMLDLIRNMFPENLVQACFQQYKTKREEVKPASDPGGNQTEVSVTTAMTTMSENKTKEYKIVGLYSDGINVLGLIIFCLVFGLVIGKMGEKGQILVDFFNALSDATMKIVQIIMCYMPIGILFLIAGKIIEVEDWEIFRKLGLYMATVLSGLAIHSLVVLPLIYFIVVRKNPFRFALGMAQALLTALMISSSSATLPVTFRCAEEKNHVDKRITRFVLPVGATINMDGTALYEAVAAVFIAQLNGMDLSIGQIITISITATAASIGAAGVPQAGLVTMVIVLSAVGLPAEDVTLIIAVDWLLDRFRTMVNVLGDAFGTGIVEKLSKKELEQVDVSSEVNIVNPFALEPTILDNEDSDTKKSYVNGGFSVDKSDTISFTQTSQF
Experimental: Cells were maintained at 37° C. in a fully humidified atmosphere containing 5% CO2. rASCT2, hASCT2, hASCT1, EAAT1, EAAT2, EAAC1, EAAT5 and YFP complementary DNAs were each used to transiently transfect HEK293 using POLYPLUS Jet-prime transfection reagent. Cells were analyzed using electrophysiological techniques 24-40 hours after transfection.
as §1
as §2, with “The figures show representative current traces and dose-response curves for hACST2 and rASCT2, used to obtain Ki values in TABLE 2 for compound SN 40.” left out

Ki [1] [nM] | Ki [2] [nM] | SMILES
3700 ± 200 | 7230 ± 1400 | O=C(O[C@@H]1CN[C@H](C(=O)O)C1)c1ccc(-c2ccccc2)cc1 [SN 05]
1000 ± 300 | 1250 ± 200 | O=C(O[C@@H]1CN[C@H](C(=O)O)C1)c1ccc(-c2ccc(C(F)(F)F)cc2)cc1 [SN 09]
4750 ± 300 | 950 ± 200 | Cc1ccccc1-c1ccc(C(=O)O[C@@H]2CN[C@H](C(=O)O)C2)cc1C [SN 11]
1000 ± 100 | 1990 ± 400 | Cc1ccccc1-c1ccc(C(=O)O[C@@H]2CN[C@H](C(=O)O)C2)cc1 [SN 10]
400 ± 100 | 690 ± 100 | O=C(O[C@@H]1CN[C@H](C(=O)O)C1)c1ccc(-c2ccc(F)cc2)cc1 [SN 08]
10200 ± 2500 | 14200 ± 700 | O=C(O[C@@H]1CN[C@H](C(=O)O)C1)c1ccc(-c2ccccc2)nc1 [SN 19]
9570 ± 1600 | 12300 ± 1900 | N[C@@H](COC(=O)c1ccc(NC(=O)c2ccccc2)cc1)C(=O)O [SN 25]
930 ± 100 | 1270 ± 200 | O=C(O)[C@@H]1C[C@H](OCc2ccc(-c3ccccc3)cc2)CN1 [SN 39]
